Measurements as given in PubChem BioAssay (NCI).
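Step 1: Grow cells in 96-well plates. Step 2: Expose to compound for 48 hours at 5 concentrations. Step 3: Interpolate endpoints linearly; if unreached, use highest concentration. Definition used: TGI = concentration required for complete inhibition of growth.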

What was measured:
Assay in all cases: inhibition of tumour cell growth, NCI panel, 48 h
[1] = system: SF-268 CNS
[2] = system: MDA-N
[3] = system: HS 578T breast
[4] = system: BT-549 breast
[5] = system: SF-295 CNS
[6] = system: SN12C renal
[7] = system: MOLT-4 leukemia
[8] = system: SK-MEL-5 melanoma
[9] = system: LOX IMVI melanoma
[10] = system: HCT-15 colon
[11] = system: SR leukemia
[12] = system: UACC-62 melanoma
[13] = system: PC-3 prostate
[14] = system: OVCAR-3 ovarian
[15] = system: RXF 393 renal
[16] = system: MDA-MB-435
[17] = system: IGROV1 ovarian
[18] = system: K-562 leukemia
[19] = system: EKVX NSCLC
[20] = system: OVCAR-4 ovarian
[21] = system: 786-0 renal
[22] = system: KM12 colon
[23] = system: SK-OV-3 ovarian
[24] = system: T-47D breast
[25] = system: OVCAR-8 ovarian
[26] = system: MCF7 breast
[27] = system: CCRF-CEM leukemia
[28] = system: COLO 205 colon
[29] = system: RPMI-8226 leukemia
[30] = system: UO-31 renal
[31] = system: HL-60(TB) leukemia
[32] = system: HT29 colon
[33] = system: NCI-H460 lung
[34] = system: SNB-19 CNS
[35] = system: SF-539 CNS
[36] = system: HCT-116 colon
[37] = system: SK-MEL-2 melanoma
[38] = system: NCI-H226 lung
[39] = system: UACC-257 melanoma
[40] = system: SW-620 colon
[41] = system: SK-MEL-28 melanoma
[42] = system: DU-145 prostate
[43] = system: NCI-H522 lung
[44] = system: HOP-92 NSCLC
[45] = system: ACHN renal
[46] = system: HCC-2998 colon
[47] = system: HOP-62 NSCLC
[48] = system: M14 melanoma
[49] = system: A498 renal
[50] = system: MALME-3M melanoma
[51] = system: SNB-75 CNS
[52] = system: NCI/ADR-RES ovarian
[53] = system: OVCAR-5 ovarian
[54] = system: A549 NSCLC
[55] = system: CAKI-1 renal
[56] = system: NCI-H23 lung
[57] = system: TK-10 renal
[58] = system: U251 CNS
[59] = system: MDA-MB-231 breast

`COc1ccc(C)cc1Nc1nnc(-c2ccccc2N)s1` was tested, and the TGI [1] was > 100 µM, the TGI [2] was > 100 µM and the TGI [3] was > 100 µM. For the same compound, the TGI [4] was > 100 µM, the TGI [5] was > 100 µM and the TGI [6] was > 100 µM. For the same compound, the TGI [7] was 15 µM, the TGI [8] was 29.4 µM and the TGI [9] was > 100 µM. The TGI [10] was > 100 µM, the TGI [11] was 46.7 µM and the TGI [12] was > 100 µM. For the same compound, the TGI [13] was > 100 µM, the TGI [14] was > 100 µM and the TGI [15] was > 100 µM. For the same compound, the TGI [16] was > 100 µM, the TGI [17] was > 100 µM and the TGI [18] was > 100 µM. The TGI [19] was 90.5 µM, the TGI [20] was > 100 µM and the TGI [21] was > 100 µM. The TGI [22] was > 100 µM, the TGI [23] was > 100 µM and the TGI [24] was > 100 µM. For the same compound, the TGI [25] was > 100 µM, the TGI [26] was > 100 µM and the TGI [27] was > 100 µM. For the same compound, the TGI [28] was > 100 µM, the TGI [29] was 53.4 µM and the TGI [30] was > 100 µM. For the same compound, the TGI [31] was 73 µM, the TGI [32] was > 100 µM and the TGI [33] was > 100 µM. The TGI [34] was > 100 µM, the TGI [35] was > 100 µM and the TGI [36] was > 100 µM. For the same compound, the TGI [37] was 52.3 µM, the TGI [38] was > 100 µM and the TGI [39] was > 100 µM. For the same compound, the TGI [40] was > 100 µM, the TGI [41] was > 100 µM and the TGI [42] was > 100 µM. For the same compound, the TGI [43] was 58.7 µM, the TGI [44] was > 100 µM and the TGI [45] was > 100 µM. For the same compound, the TGI [46] was > 100 µM, the TGI [47] was > 100 µM and the TGI [48] was > 100 µM. The TGI [49] was > 100 µM, the TGI [50] was > 100 µM and the TGI [51] was > 100 µM. The TGI [52] was > 100 µM, the TGI [53] was > 100 µM and the TGI [54] was > 100 µM. For the same compound, the TGI [55] was > 100 µM and the TGI [56] was > 100 µM.
For `Cc1cn(Cc2cnnn2CC2OC(n3cc(C)c(=O)[nH]c3=O)CC2O)c(=O)[nH]c1=O` (configuration not stated), the TGI [1] was > 100 µM, the TGI [2] was > 100 µM and the TGI [3] was > 100 µM. The TGI [4] was > 100 µM, the TGI [57] was > 100 µM and the TGI [5] was > 100 µM. For the same compound, the TGI [6] was > 100 µM, the TGI [7] was > 100 µM and the TGI [8] was > 100 µM. For the same compound, the TGI [9] was > 100 µM, the TGI [10] was > 100 µM and the TGI [12] was > 100 µM. The TGI [58] was > 100 µM, the TGI [13] was > 100 µM and the TGI [14] was > 100 µM. The TGI [15] was > 100 µM, the TGI [16] was > 100 µM and the TGI [17] was > 100 µM. For the same compound, the TGI [19] was > 100 µM, the TGI [59] was > 100 µM and the TGI [20] was > 100 µM. For the same compound, the TGI [22] was > 100 µM, the TGI [23] was > 100 µM and the TGI [24] was > 100 µM. For the same compound, the TGI [25] was > 100 µM, the TGI [26] was > 100 µM and the TGI [27] was > 100 µM. The TGI [28] was > 100 µM, the TGI [29] was > 100 µM and the TGI [30] was > 100 µM. The TGI [34] was > 100 µM, the TGI [35] was > 100 µM and the TGI [36] was > 100 µM. For the same compound, the TGI [37] was > 100 µM, the TGI [38] was > 100 µM and the TGI [39] was > 100 µM. For the same compound, the TGI [40] was > 100 µM, the TGI [41] was > 100 µM and the TGI [42] was > 100 µM. For the same compound, the TGI [44] was > 100 µM, the TGI [45] was > 100 µM and the TGI [46] was > 100 µM. The TGI [47] was > 100 µM, the TGI [48] was > 100 µM and the TGI [49] was > 100 µM. For the same compound, the TGI [50] was > 100 µM, the TGI [52] was > 100 µM and the TGI [53] was > 100 µM. The TGI [54] was > 100 µM, the TGI [55] was > 100 µM and the TGI [56] was > 100 µM.
